#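 The concentration for 50% growth inhibition is given as GI50. At the TGI there is no net growth.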
# Columns and labels:
# Experiment in all cases: inhibition of tumour cell growth, NCI panel, 384-well format
# [1] = test system: SNB-75 CNS
# [2] = test system: UACC-257 melanoma
# [3] = test system: EKVX NSCLC
# [4] = test system: A498 renal
# [5] = test system: NCI/ADR-RES ovarian
# [6] = test system: DU-145 prostate
# [7] = test system: SN12C renal
# [8] = test system: HL-60(TB) leukemia
# [9] = test system: SK-OV-3 ovarian
# [10] = test system: OVCAR-4 ovarian
# [11] = test system: MDA-MB-468 breast
# [12] = test system: PC-3 prostate
# [13] = test system: HCT-15 colon
# [14] = test system: MDA-MB-435 melanoma
# [15] = test system: K-562 leukemia
# [16] = test system: IGROV1 ovarian
# [17] = test system: SK-MEL-2 melanoma
# [18] = test system: SK-MEL-28 melanoma
# [19] = test system: SNB-19 CNS
# [20] = test system: UO-31 renal
# [21] = test system: RXF 393 renal
# [22] = test system: NCI-H23 lung
# [23] = test system: SF-295 CNS
# [24] = test system: M14 melanoma
# [25] = test system: 786-0 renal
# [26] = test system: BT-549 breast
# [27] = test system: T-47D breast
# [28] = test system: A549 NSCLC
# [29] = test system: TK-10 renal
# [30] = test system: HOP-92 NSCLC
# [31] = test system: ACHN renal
# [32] = test system: OVCAR-8 ovarian
# [33] = test system: UACC-62 melanoma
# [34] = test system: MDA-MB-231 breast
# [35] = test system: U251 glioblastoma
# [36] = test system: SF-539 CNS
# [37] = test system: HT29 colon
# [38] = test system: RPMI-8226 leukemia
# [39] = test system: NCI-H322M lung
# [40] = test system: MCF7 breast
# [41] = test system: MALME-3M melanoma
# [42] = test system: OVCAR-3 ovarian
# [43] = test system: HS 578T breast
# [44] = test system: CAKI-1 renal
# [45] = test system: SW-620 colon
# [46] = test system: LOX IMVI melanoma
# [47] = test system: SF-268 CNS
# [48] = test system: HCT-116 colon
# [49] = test system: KM12 colon
# [50] = test system: NCI-H226 lung
# [51] = test system: CCRF-CEM leukemia
# [52] = test system: NCI-H522 lung
# [53] = test system: OVCAR-5 ovarian
# [54] = test system: HOP-62 NSCLC
# [55] = test system: HCC-2998 colon
# [56] = test system: NCI-H460 NSCLC
# [57] = test system: SR leukemia
# [58] = test system: MOLT-4 leukemia
# [59] = test system: COLO 205 colon
# [60] = test system: SK-MEL-5 melanoma
compound,measurement,setting,value
COc1cc([C@@H]2c3cc4c(cc3[C@@H](OC3OC5CO[C@@H](c6cccs6)OC5C(O)C3O)[C@H]3COC(=O)[C@H]23)OCO4)cc(OC)c1O (stereo partly drawn),GI50,[1],0.327 µM
same,TGI,[1],1.78 µM
same,GI50,[2],2.85 µM
same,TGI,[2],13.1 µM
same,GI50,[3],3.01 µM
same,TGI,[3],28.7 µM
same,GI50,[4],0.206 µM
same,TGI,[4],3.51 µM
same,GI50,[5],63.7 µM
same,TGI,[5],> 100 µM
same,GI50,[6],0.212 µM
same,TGI,[6],1.21 µM
same,GI50,[7],0.139 µM
same,TGI,[7],0.665 µM
same,TGI,[8],0.0116 µM
same,GI50,[9],0.326 µM
same,TGI,[9],2.67 µM
same,GI50,[10],3.42 µM
same,TGI,[10],17.4 µM
same,GI50,[11],0.138 µM
same,TGI,[11],0.35 µM
same,GI50,[12],1.39 µM
same,TGI,[12],5.76 µM
same,GI50,[13],0.17 µM
same,TGI,[13],1.39 µM
same,GI50,[14],0.756 µM
same,TGI,[14],2.43 µM
same,GI50,[15],0.154 µM
same,TGI,[15],1.42 µM
same,GI50,[16],1.35 µM
same,TGI,[16],10 µM
same,GI50,[17],0.567 µM
same,TGI,[17],0.89 µM
same,GI50,[18],0.321 µM
same,TGI,[18],1.97 µM
same,GI50,[19],0.219 µM
same,TGI,[19],> 100 µM
same,GI50,[20],4 µM
same,TGI,[20],17.5 µM
same,GI50,[21],0.685 µM
same,TGI,[21],2.51 µM
same,GI50,[22],0.0771 µM
same,TGI,[22],0.664 µM
same,GI50,[23],0.103 µM
same,TGI,[23],0.49 µM
same,GI50,[24],0.16 µM
same,TGI,[24],1.15 µM
same,GI50,[25],0.197 µM
same,TGI,[25],1.18 µM
same,GI50,[26],0.0758 µM
same,TGI,[26],0.537 µM
same,GI50,[27],0.146 µM
same,TGI,[27],27.3 µM
same,GI50,[28],0.173 µM
same,TGI,[28],4.08 µM
same,GI50,[29],0.825 µM
same,TGI,[29],2.24 µM
same,GI50,[30],0.321 µM
same,TGI,[30],8.75 µM
same,GI50,[31],0.296 µM
same,TGI,[31],1.71 µM
same,GI50,[32],0.151 µM
same,TGI,[32],1.47 µM
same,GI50,[33],0.103 µM
same,TGI,[33],1.8 µM
same,GI50,[34],0.171 µM
same,TGI,[34],0.599 µM
same,GI50,[35],0.0674 µM
same,TGI,[35],1.2 µM
same,GI50,[36],0.0959 µM
same,TGI,[36],0.56 µM
same,GI50,[37],0.236 µM
same,TGI,[37],1.23 µM
same,TGI,[38],0.161 µM
same,GI50,[39],3.25 µM
same,TGI,[39],14.3 µM
same,GI50,[40],0.0828 µM
same,TGI,[40],12.2 µM
same,GI50,[41],0.671 µM
same,TGI,[41],3.97 µM
same,GI50,[42],0.348 µM
same,TGI,[42],2.07 µM
same,GI50,[43],0.0624 µM
same,TGI,[43],0.703 µM
same,GI50,[44],0.224 µM
same,TGI,[44],4.46 µM
same,GI50,[45],0.0449 µM
same,TGI,[45],1.35 µM
same,GI50,[46],0.169 µM
same,TGI,[46],1.57 µM
same,GI50,[47],0.134 µM
same,TGI,[47],1.35 µM
same,GI50,[48],0.0678 µM
same,TGI,[48],2.02 µM
same,GI50,[49],0.113 µM
same,TGI,[49],1.35 µM
same,GI50,[50],0.311 µM
same,TGI,[50],8.81 µM
same,TGI,[51],0.0219 µM
same,GI50,[52],0.198 µM
same,TGI,[52],1.53 µM
same,GI50,[53],0.395 µM
same,TGI,[53],2.41 µM
same,GI50,[54],0.0741 µM
same,TGI,[54],0.267 µM
CC(C)Oc1ccc(-c2nn([C@@H](C)c3oc4ccc(F)cc4c(=O)c3-c3cccc(F)c3)c3ncnc(N)c23)cc1F,GI50,[1],33.5 µM
same,TGI,[1],> 100 µM
same,GI50,[2],> 100 µM
same,TGI,[2],> 100 µM
same,GI50,[3],> 100 µM
same,TGI,[3],> 100 µM
same,GI50,[4],8.65 µM
same,TGI,[4],> 100 µM
same,GI50,[5],19.5 µM
same,TGI,[5],> 100 µM
same,GI50,[6],> 100 µM
same,TGI,[6],> 100 µM
same,GI50,[7],> 100 µM
same,TGI,[7],> 100 µM
same,GI50,[8],5.31 µM
same,TGI,[8],> 36 µM
same,GI50,[9],> 100 µM
same,TGI,[9],> 100 µM
same,GI50,[10],6.49 µM
same,TGI,[10],> 100 µM
same,GI50,[11],5.71 µM
same,TGI,[11],> 83.7 µM
same,GI50,[12],7.27 µM
same,TGI,[12],> 100 µM
same,GI50,[13],32.5 µM
same,TGI,[13],> 100 µM
same,GI50,[14],> 100 µM
same,TGI,[14],> 100 µM
same,GI50,[15],5.18 µM
same,TGI,[15],> 100 µM
same,GI50,[16],> 100 µM
same,TGI,[16],> 100 µM
same,GI50,[17],> 100 µM
same,TGI,[17],> 100 µM
same,GI50,[18],> 100 µM
same,TGI,[18],> 100 µM
same,GI50,[19],> 100 µM
same,TGI,[19],> 100 µM
same,GI50,[20],1.94 µM
same,TGI,[20],7.54 µM
same,GI50,[21],2.45 µM
same,TGI,[21],11.5 µM
same,GI50,[22],38.5 µM
same,TGI,[22],> 100 µM
same,GI50,[23],> 100 µM
same,TGI,[23],> 100 µM
same,GI50,[24],> 100 µM
same,TGI,[24],> 100 µM
same,GI50,[25],26.2 µM
same,TGI,[25],> 100 µM
same,GI50,[26],10.3 µM
same,TGI,[26],> 100 µM
same,GI50,[27],6.03 µM
same,TGI,[27],> 100 µM
same,GI50,[28],11.1 µM
same,TGI,[28],> 100 µM
same,GI50,[29],> 100 µM
same,TGI,[29],> 100 µM
same,GI50,[30],8.09 µM
same,TGI,[30],> 80.9 µM
same,GI50,[31],> 86.8 µM
same,TGI,[31],> 100 µM
same,GI50,[32],11.8 µM
same,TGI,[32],> 100 µM
same,GI50,[33],> 100 µM
same,TGI,[33],> 100 µM
same,GI50,[34],9.94 µM
same,TGI,[34],> 100 µM
same,GI50,[55],> 100 µM
same,TGI,[55],> 100 µM
same,GI50,[35],88.8 µM
same,TGI,[35],> 100 µM
same,GI50,[36],20.3 µM
same,TGI,[36],> 100 µM
same,GI50,[37],> 100 µM
same,TGI,[37],> 100 µM
same,GI50,[38],3.34 µM
same,TGI,[38],9.04 µM
same,GI50,[39],> 100 µM
same,TGI,[39],> 100 µM
same,GI50,[40],9.51 µM
same,TGI,[40],> 100 µM
same,GI50,[41],> 100 µM
same,TGI,[41],> 100 µM
same,GI50,[56],10.5 µM
same,TGI,[56],> 100 µM
same,GI50,[42],12.1 µM
same,TGI,[42],> 100 µM
same,GI50,[57],2.84 µM
same,TGI,[57],14.9 µM
same,GI50,[44],> 100 µM
same,TGI,[44],> 100 µM
same,GI50,[45],> 90.1 µM
same,TGI,[45],> 100 µM
same,GI50,[46],> 100 µM
same,TGI,[46],> 100 µM
same,GI50,[47],> 100 µM
same,TGI,[47],> 100 µM
same,GI50,[48],13.9 µM
same,TGI,[48],> 100 µM
same,GI50,[49],> 100 µM
same,TGI,[49],> 100 µM
same,GI50,[58],3.51 µM
same,TGI,[58],> 100 µM
same,GI50,[50],51.5 µM
same,TGI,[50],> 100 µM
same,GI50,[51],3.62 µM
same,TGI,[51],> 83.9 µM
same,GI50,[59],> 100 µM
same,TGI,[59],> 100 µM
same,GI50,[52],12.9 µM
same,TGI,[52],> 100 µM
same,GI50,[60],> 29.3 µM
same,TGI,[60],> 100 µM
same,GI50,[53],> 100 µM
same,TGI,[53],> 100 µM
same,GI50,[54],> 100 µM
same,TGI,[54],> 100 µM

# Source: PubChem BioAssay (NCI)
